Measured values published in patent US6525001B1, “Substituted pyrimidine and pyridine herbicides” (Mid-American Commercialization Corporation, priority 1997, dated 2003).

How the values were obtained:
Test in all cases: Test B pre-/postemergence
Type in all cases: in vivo
Design in all cases: key: 0 is no effect; 10 is complete control
[1] = system: crabgrass (Digitaria sanguinalis)
Summary of the method: (§1)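 Compounds in a surfactant-containing, non-phytotoxic solvent blend are applied to freshly planted seed (preemergence) and, concurrently, to seedlings of 2 to 18 cm at 1–4 leaves (postemergence). Plants stay in the greenhouse twelve to sixteen days and are then scored visually from 0 (no effect) to 10 (complete control).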

[2] = system: corn (Zea mays)
Summary of the method: as §1

[3] = system: cocklebur (Xanthium strumarium)
Summary of the method: as §1

[4] = system: rape (Brassica napus)
Summary of the method: as §1

[5] = system: wheat (Triticum aestivum)
Summary of the method: as §1

[6] = system: pigweed (Amaranthus retroflexus)
Summary of the method: as §1

[7] = system: sugar beet (Beta vulgaris)
Summary of the method: as §1

[8] = system: broadleaf signalgrass (Brachiaria decumbens)
Summary of the method: as §1

[9] = system: bedstraw (Galium aparine)
Summary of the method: as §1

[10] = system: soybean (Glycine max)
Summary of the method: as §1

[11] = system: purple nutsedge (Cyperus rotundus)
Summary of the method: as §1

[12] = system: momingglory (Ipomoea hederacea)
Summary of the method: as §1

[13] = system: velvetleaf (Abutilon theophrasti)
Summary of the method: as §1

[14] = system: giant foxtail (Setaria faberii)
Summary of the method: as §1

[15] = Preemergence, Rate 62 g/ha, scale of 0 to 10

Cc1cnc(-c2ccc(C(F)(F)F)cc2)nc1C(=O)c1cccc(C(F)(F)F)c1 [Compound 73]
0: Plant response rating, Cocklebur [3, 15] | Plant response rating, Soybean [10, 15] | Plant response rating, Nutsedge [11, 15] | Nutsedge plant response rating ([11]; Rate 62 g/ha, Postemergence) | Nutsedge plant response rating ([11]; Rate 125 g/ha, Postemergence) | Plant response rating, Nutsedge ([11]; Rate 125 g/ha, Preemergence) | Plant response rating, Nutsedge ([11]; Rate 250 g/ha, Preemergence) | Plant response rating, Nutsedge ([11]; Rate 500 g/ha, Preemergence)
7: Crabgrass plant response rating ([1]; Rate 62 g/ha, Postemergence) | Plant response rating, Cocklebur ([3]; Rate 250 g/ha, Preemergence) | Plant response rating, Wheat ([5]; Rate 250 g/ha, Preemergence) | Plant response rating, Velvetleaf ([13]; Rate 250 g/ha, Preemergence)
6: Plant response rating, Rape ([4]; Rate 125 g/ha, Preemergence) | Plant response rating, Rape ([4]; Rate 250 g/ha, Preemergence) | Plant response rating, Wheat ([5]; Rate 500 g/ha, Postemergence) | Plant response rating, Soybean ([10]; Rate 500 g/ha, Postemergence) | Giant foxtail plant response rating ([14]; Rate 62 g/ha, Postemergence)
2: Corn plant response rating ([2]; Rate 62 g/ha, Postemergence) | Plant response rating, Corn ([2]; Rate 250 g/ha, Preemergence) | Plant response rating, Corn ([2]; Rate 500 g/ha, Preemergence) | Plant response rating, Rape [4, 15] | Plant response rating, Wheat [5, 15] | Plant response rating, Bedstraw [9, 15] | Plant response rating, Soybean ([10]; Rate 500 g/ha, Preemergence) | Plant response rating, Nutsedge ([11]; Rate 250 g/ha, Postemergence) | Plant response rating, Velvetleaf [13, 15]
3: Corn plant response rating ([2]; Rate 125 g/ha, Postemergence) | Plant response rating, Corn ([2]; Rate 250 g/ha, Postemergence) | Plant response rating, Corn ([2]; Rate 500 g/ha, Postemergence) | Plant response rating, Morningglory [12, 15]
9: Crabgrass plant response rating ([1]; Rate 125 g/ha, Postemergence) | Plant response rating, Crabgrass ([1]; Rate 250 g/ha, Postemergence) | Plant response rating, Crabgrass ([1]; Rate 500 g/ha, Postemergence) | Cocklebur plant response rating ([3]; Rate 62 g/ha, Postemergence) | Cocklebur plant response rating ([3]; Rate 125 g/ha, Postemergence) | Plant response rating, Cocklebur ([3]; Rate 250 g/ha, Postemergence) | Plant response rating, Wheat ([5]; Rate 500 g/ha, Preemergence) | Plant response rating, Redroot pigweed [6, 15] | Redroot pigweed plant response rating ([6]; Rate 62 g/ha, Postemergence) | Redroot pigweed plant response rating ([6]; Rate 125 g/ha, Postemergence) | Plant response rating, Sugarbeets [7, 15] | Plant response rating, Sugarbeets ([7]; Rate 125 g/ha, Preemergence) | Plant response rating, Sugarbeets ([7]; Rate 250 g/ha, Postemergence) | Plant response rating, Sugarbeets ([7]; Rate 500 g/ha, Postemergence) | B. signalgrass plant response rating ([8]; Rate 62 g/ha, Preemergence) | B. signalgrass plant response rating ([8]; Rate 125 g/ha, Postemergence) | Plant response rating, B. signalgrass ([8]; Rate 125 g/ha, Preemergence) | Plant response rating, B. signalgrass ([8]; Rate 250 g/ha, Postemergence) | Plant response rating, B. signalgrass ([8]; Rate 250 g/ha, Preemergence) | Bedstraw plant response rating ([9]; Rate 62 g/ha, Postemergence) | Bedstraw plant response rating ([9]; Rate 125 g/ha, Postemergence) | Plant response rating, Bedstraw ([9]; Rate 250 g/ha, Postemergence) | Plant response rating, Bedstraw ([9]; Rate 250 g/ha, Preemergence) | Plant response rating, Bedstraw ([9]; Rate 500 g/ha, Postemergence) | Soybean plant response rating ([10]; Rate 125 g/ha, Postemergence) | Plant response rating, Soybean ([10]; Rate 250 g/ha, Postemergence) | Morningglory plant response rating ([12]; Rate 62 g/ha, Postemergence) | Morningglory plant response rating ([12]; Rate 125 g/ha, Postemergence) | Plant response rating, Morningglory ([12]; Rate 125 g/ha, Preemergence) | Plant response rating, Morningglory ([12]; Rate 250 g/ha, Postemergence) | Plant response rating, Morningglory ([12]; Rate 250 g/ha, Preemergence) | Velvetleaf plant response rating ([13]; Rate 62 g/ha, Postemergence) | Velvetleaf plant response rating ([13]; Rate 125 g/ha, Postemergence) | Plant response rating, Velvetleaf ([13]; Rate 250 g/ha, Postemergence) | Plant response rating, Giant foxtail ([14]; Rate 250 g/ha, Postemergence) | Plant response rating, Giant foxtail ([14]; Rate 500 g/ha, Postemergence)
10: Plant response rating, Crabgrass [1, 15] | Plant response rating, Crabgrass ([1]; Rate 125 g/ha, Preemergence) | Plant response rating, Crabgrass ([1]; Rate 250 g/ha, Preemergence) | Plant response rating, Crabgrass ([1]; Rate 500 g/ha, Preemergence) | Rape plant response rating ([4]; Rate 62 g/ha, Postemergence) | Rape plant response rating ([4]; Rate 125 g/ha, Postemergence) | Plant response rating, Rape ([4]; Rate 250 g/ha, Postemergence) | Plant response rating, Rape ([4]; Rate 500 g/ha, Postemergence) | Plant response rating, Rape ([4]; Rate 500 g/ha, Preemergence) | Plant response rating, Redroot pigweed ([6]; Rate 125 g/ha, Preemergence) | Plant response rating, Redroot pigweed ([6]; Rate 250 g/ha, Postemergence) | Plant response rating, Redroot pigweed ([6]; Rate 250 g/ha, Preemergence) | Plant response rating, Redroot pigweed ([6]; Rate 500 g/ha, Postemergence) | Plant response rating, Redroot pigweed ([6]; Rate 500 g/ha, Preemergence) | Sugarbeets plant response rating ([7]; Rate 62 g/ha, Postemergence) | Sugarbeets plant response rating ([7]; Rate 125 g/ha, Postemergence) | Plant response rating, Sugarbeets ([7]; Rate 250 g/ha, Preemergence) | Plant response rating, Sugarbeets ([7]; Rate 500 g/ha, Preemergence) | Plant response rating, B. signalgrass ([8]; Rate 500 g/ha, Preemergence) | Plant response rating, Bedstraw ([9]; Rate 500 g/ha, Preemergence) | Plant response rating, Morningglory ([12]; Rate 500 g/ha, Postemergence) | Plant response rating, Morningglory ([12]; Rate 500 g/ha, Preemergence) | Plant response rating, Velvetleaf ([13]; Rate 500 g/ha, Postemergence) | Plant response rating, Giant foxtail [14, 15] | Plant response rating, Giant foxtail ([14]; Rate 125 g/ha, Preemergence) | Plant response rating, Giant foxtail ([14]; Rate 250 g/ha, Preemergence) | Plant response rating, Giant foxtail ([14]; Rate 500 g/ha, Preemergence)
1: Plant response rating, Corn [2, 15] | Plant response rating, Corn ([2]; Rate 125 g/ha, Preemergence) | Plant response rating, Cocklebur ([3]; Rate 125 g/ha, Preemergence) | Plant response rating, Soybean ([10]; Rate 125 g/ha, Preemergence) | Plant response rating, Soybean ([10]; Rate 250 g/ha, Preemergence)
8: Plant response rating, Cocklebur ([3]; Rate 500 g/ha, Postemergence) | B. signalgrass plant response rating ([8]; Rate 62 g/ha, Postemergence) | Plant response rating, B. signalgrass ([8]; Rate 500 g/ha, Postemergence) | Plant response rating, Bedstraw ([9]; Rate 125 g/ha, Preemergence) | Soybean plant response rating ([10]; Rate 62 g/ha, Postemergence) | Plant response rating, Velvetleaf ([13]; Rate 500 g/ha, Preemergence) | Giant foxtail plant response rating ([14]; Rate 125 g/ha, Postemergence)
4: Wheat plant response rating ([5]; Rate 62 g/ha, Postemergence) | Wheat plant response rating ([5]; Rate 125 g/ha, Postemergence) | Plant response rating, Wheat ([5]; Rate 125 g/ha, Preemergence) | Plant response rating, Velvetleaf ([13]; Rate 125 g/ha, Preemergence)
5: Plant response rating, Wheat ([5]; Rate 250 g/ha, Postemergence)
